Data: patent US4228239A (priority 1977, dated 1980)
Values after ≈ are worked out from the molar mass of the structure shown.

What was measured:
[1] = tested on: Pyricularia oryzae; type: cell-based
[2] = tested on: Sclerotinia screrotiorum; assay: Activity against microorganisms; type: cell-based
[3] = tested on: P388 leukemia; assay: Antitumour activity upon P388 leukemia in mice; type: in vivo, mouse; settings: 0.00625 mg/kg/day, intraperitoneal, 9 consecutive days; 1×10^6 cells/animal i.p. transplanted
Excerpt: The therapeutic effects of P-3 (dosed intraperito-nearly for 9 consecutive days) upon P388 leukemia in mice (1×10^6 cells/animal, mouse, intra-peritoneally transplanted) was investigated.

[4] = tested on: Cryptococcus neoformans; assay: Activity against microorganisms; type: cell-based
[5] = tested on: Talaromyces avellaneus; assay: Growth inhibition of a fungus on an agar plate; type: cell-based; settings: Hamigera avellanea, pH 7.0, read-out: minimal inhibitory concentration
Protocol: On the other hand, the growth of a fungus, Talaromyces avellaneus is inhibited by P-3 on an agar plate consisting of 3.5 g disodium hydrogen phosphate, 0.5 g monopotassium dihydrogen phosphate, 5 g yeast extract (Difco), 10 g glucose, 15 g agar, 1000 ml distilled water, pH 7.0. The minimal inhibitory concentration was 3 μg/ml for P-3.

[6] = tested on: Helminthosporium sigmoidium var irregulare; assay: Activity against microorganisms; type: cell-based
[7] = Solubility; type: physicochemical
[8] = tested on: Escherichia coli; assay: Antimicrobial activity, paper disc method; type: cell-based; settings: paper disc 8 mm, 0.02 ml of a 300 μg/ml solution, trypticase-soy agar
Protocol: (§1) With trypticase-soy agar (BBL) as an assay medium, the inhibitory concentrations against the microorganisms described below were investigated by the paper disc method. Filter-paper discs (Toyo Seisakusho, thin-type, 8 mm in dia.) each impregnated with 0.02 ml of a 300 μg/ml solution of P-3 were placed on agar plates respectively inoculated with the microorganisms described below. P-3 had no activity against the following bacteria: Escherichia coli, Proteus vulgaris, Proteus mirabilis, Pseudomonas aeruginosa, Staphylococcus aureus, Bacillus subtilis, Bacillus cereus, Klebsiella pneumoniae, Serratia marcescens, and Mycobacterium avium.

[9] = tested on: Proteus mirabilis; assay: Antimicrobial activity, paper disc method; type: cell-based; settings: paper disc 8 mm, 0.02 ml of a 300 μg/ml solution, trypticase-soy agar
Protocol: as §1

[10] = tested on: Serratia marcescens; assay: Antimicrobial activity, paper disc method; type: cell-based; settings: paper disc 8 mm, 0.02 ml of a 300 μg/ml solution, trypticase-soy agar
Protocol: as §1

[11] = tested on: Bacillus subtilis; assay: Antimicrobial activity, paper disc method; type: cell-based; settings: paper disc 8 mm, 0.02 ml of a 300 μg/ml solution, trypticase-soy agar
Protocol: as §1

[12] = tested on: Mycobacterium avium; assay: Antimicrobial activity, paper disc method; type: cell-based; settings: paper disc 8 mm, 0.02 ml of a 300 μg/ml solution, trypticase-soy agar
Protocol: as §1

[13] = tested on: Pseudomonas aeruginosa; assay: Antimicrobial activity, paper disc method; type: cell-based; settings: paper disc 8 mm, 0.02 ml of a 300 μg/ml solution, trypticase-soy agar
Protocol: as §1

[14] = tested on: Staphylococcus aureus; assay: Antimicrobial activity, paper disc method; type: cell-based; settings: paper disc 8 mm, 0.02 ml of a 300 μg/ml solution, trypticase-soy agar
Protocol: as §1

[15] = tested on: Bacillus cereus; assay: Antimicrobial activity, paper disc method; type: cell-based; settings: paper disc 8 mm, 0.02 ml of a 300 μg/ml solution, trypticase-soy agar
Protocol: as §1

[16] = tested on: Klebsiella pneumoniae; assay: Antimicrobial activity, paper disc method; type: cell-based; settings: paper disc 8 mm, 0.02 ml of a 300 μg/ml solution, trypticase-soy agar
Protocol: as §1

[17] = tested on: Proteus vulgaris; assay: Antimicrobial activity, paper disc method; type: cell-based; settings: paper disc 8 mm, 0.02 ml of a 300 μg/ml solution, trypticase-soy agar
Protocol: as §1

[18] = tested on: Rhodotorula rubra; assay: Activity against microorganisms; type: cell-based
[19] = tested on: Pellicularia sasakii; assay: Activity against microorganisms; type: cell-based
[20] = Preliminary acute toxicity test with mice; settings: mouse, in vivo, ip, intraperitoneal injection
[21] = tested on: Cochlioborus miyabeanus; assay: Activity against microorganisms; type: cell-based
[22] = tested on: Trichophyton rubrum; assay: Activity against microorganisms; type: cell-based
[23] = tested on: Fusicladium levieri; assay: Activity against microorganisms; type: cell-based

In the case of `COc1cc2cc(c1Cl)N(C)C(=O)CC(OC(=O)C(C)C)C1(C)OC1C(C)C1CC(O)(NC(=O)O1)C(OC)C=CC=C(C)C2` (centres unmarked) [P-3], the “activity against Pyricularia oryzae” value [1] is reported as “had the activity”, the “activity against Sclerotinia screrotiorum” value [2] is reported as “had the activity” and the life-span-extending ratio [3] is reported as 168%. The “activity against Cryptococcus neoformans” value [4] was “had the activity”, the MIC [5] was 3 µg/mL (≈ 4.72 µM) and the “activity against Helminthosporium sigmoidium var irregulare” value [6] was “had the activity”. For the same compound, the Solubility ([7]; acetone) was “Soluble”, the Solubility ([7]; benzene) was “Sparingly soluble” and the Solubility ([7]; chloroform) was “Soluble”. For the same compound, the Solubility ([7]; dimethylsulfoxide) was “Soluble”, the Solubility ([7]; ethanol) was “Soluble” and the Solubility ([7]; ether) was “Sparingly soluble”. For the same compound, the Solubility ([7]; ethyl acetate) was “Soluble”, the Solubility ([7]; hexane) was “Insoluble” and the Solubility ([7]; methanol) was “Soluble”. For the same compound, the Solubility ([7]; petr.ether) was “Insoluble”, the Solubility ([7]; pyridine) was “Soluble” and the Solubility ([7]; tetrahydrofuran) was “Soluble”. The Solubility ([7]; water) was “Insoluble”, the “activity against bacteria (Escherichia coli)” value [8] was “no activity” and the “activity against bacteria (Proteus mirabilis)” value [9] was “no activity”. For the same compound, the “activity against bacteria (Serratia marcescens)” value [10] was “no activity”, the “activity against bacteria (Bacillus subtilis)” value [11] was “no activity” and the “activity against bacteria (Mycobacterium avium)” value [12] was “no activity”. The “activity against bacteria (Pseudomonas aeruginosa)” value [13] was “no activity”, the “activity against bacteria (Staphylococcus aureus)” value [14] was “no activity” and the “activity against bacteria (Bacillus cereus)” value [15] was “no activity”. The “activity against bacteria (Klebsiella pneumoniae)” value [16] was “no activity”, the “activity against bacteria (Proteus vulgaris)” value [17] was “no activity” and the “activity against Rhodotorula rubra” value [18] was “had the activity”. For the same compound, the “activity against Pellicularia sasakii” value [19] was “had the activity”, the LD50 [20] was over 0.313 mg/kg and the “activity against Cochlioborus miyabeanus” value [21] was “had the activity”. For the same compound, the “activity against Trichophyton rubrum” value [22] was “had the activity” and the “activity against Fusicladium levieri” value [23] was “had the activity”.
